Reference: ChEMBL document CHEMBL1201862, “PubChem BioAssay data set” (2004)
Calls of active or inactive are those of the source.

Experiments:
[1] = Shn3 3'UTR reporter inhibitors, dose response, cell-based, Clone20 osteoblasts, firefly luciferase, cherry-picked (AID 624132); format: functional;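 note: firefly luciferase luminescence from reporter carrying the Shn3 3'UTR in osteoblasts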
[2] = HepG2 cell cytotoxicity, dose response, cytotoxicity control for Shn3 inhibitor project, CellTiter-Glo, cherry-picked (AID 624134); format: functional, cell-based
Paired box protein Pax-8 = Paired box protein Pax-8 (Homo sapiens, UniProt Q06710); assay: inhibitors of PAX8-driven TPO luciferase reporter, dose response, RMG-I cells, cherry-pick (AID 687027); format: functional, cell-based;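 note: luciferase reporter driven by Pax8 target thyroperoxidase promoter measured by SteadyGlo luminescence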
[3] = control 3'UTR Renilla luciferase suppression, dose response, counter-screen for Shn3 inhibitor project, cell-based, Clone20-Shn3RL, cherry-picked (AID 624133); format: functional
[4] = molecular target: T1, Corticotropin-releasing factor receptor 2/Corticotropin-releasing factor-binding protein (Homo sapiens, UniProt P24387+Q13324); assay: Dose Response confirmation of uHTS hits for small molecule antagonists of the CRF-binding protein and CRF-R2 receptor complex.; format: functional; details: read-out: IC50_Mean
T1 sequence (Q13324 whole entry): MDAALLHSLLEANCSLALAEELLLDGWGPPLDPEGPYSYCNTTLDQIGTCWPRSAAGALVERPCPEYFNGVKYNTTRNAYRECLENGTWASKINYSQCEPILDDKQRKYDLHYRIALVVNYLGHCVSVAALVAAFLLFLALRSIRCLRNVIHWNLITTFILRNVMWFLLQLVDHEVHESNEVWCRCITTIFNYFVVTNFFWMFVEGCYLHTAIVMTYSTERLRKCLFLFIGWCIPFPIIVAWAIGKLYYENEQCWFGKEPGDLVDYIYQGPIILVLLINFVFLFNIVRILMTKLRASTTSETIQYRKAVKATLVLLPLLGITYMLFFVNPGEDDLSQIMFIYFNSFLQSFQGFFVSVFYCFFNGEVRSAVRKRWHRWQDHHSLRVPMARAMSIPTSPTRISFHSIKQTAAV
T1 sequence (P24387 whole entry): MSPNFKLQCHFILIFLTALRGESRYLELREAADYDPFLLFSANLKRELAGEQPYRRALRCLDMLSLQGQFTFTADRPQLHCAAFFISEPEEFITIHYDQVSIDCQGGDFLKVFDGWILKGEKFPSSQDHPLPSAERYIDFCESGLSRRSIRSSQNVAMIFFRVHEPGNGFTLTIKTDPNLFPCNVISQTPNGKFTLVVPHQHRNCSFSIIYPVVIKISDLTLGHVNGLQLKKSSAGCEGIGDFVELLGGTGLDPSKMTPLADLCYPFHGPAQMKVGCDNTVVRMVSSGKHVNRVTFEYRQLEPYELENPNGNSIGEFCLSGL

[5] = CRF-BP/CRF-R2 complex antagonists, dose response, cell-based, uHTS hits, 384-well (AID 651639); format: functional, Homo sapiens; details: read-out: IC50_Mean
[6] = molecular target: T1, Corticotropin-releasing factor receptor 2/Corticotropin-releasing factor-binding protein; assay: activators of CRF receptor 2 with binding protein – uHTS hits, confirmation (AID 602473); format: functional; details: read-out: EC50_Mean
Protein Wnt-3a = Protein Wnt-3a (Mus musculus, UniProt P27467); assay: Wnt3a-driven reporter signaling inhibition, dose response, selectivity assay for Gli-SUFU antagonist project, Wnt-LIGHT cells, luminescence (AID 651570); format: functional; details: read-out: IC50_Mean;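 note: Wnt-LIGHT reporter cells stimulated with conditioned medium from Wnt3a-producing cells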
BJ [7] = assay: cytotoxicity toward BJ-TERT fibroblasts, dose response, cell-based, RAS-independent, luminescence (AID 1933); format: functional; details: Homo sapiens
[8] = cytotoxicity toward DRD oncogenic fibroblasts, dose response, cell-based, non-viral oncogenic, luminescence (AID 1934); format: functional; details: Homo sapiens
Melanocortin receptor 4 = Melanocortin receptor 4 (Homo sapiens, UniProt P32245); format: functional, cell-based;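 note: Cell-based assay with luminescence read-out, confirmatory dose-response testing for agonist activity of biased ligands at MC4R; human U2OS cells with tagged receptor and beta-arrestin; potency of agonists that increase receptor coupling to beta-arrestin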
BJ [9] = assay: cells; format: functional, cell-based; details: Homo sapiens
[10] = Luminescence Cell-Based Dose Retest to Confirm Inhibitors of Cancer Stem Cells. [Related pubchem assays (depositor defined):AID2717, AID2721]; format: functional; details: Homo sapiens
BJ [11] = assay: cytotoxicity toward BJ-TERT-LT-ST fibroblasts, dose response, cell-based, RAS-independent, luminescence (AID 1935); format: functional; details: Homo sapiens;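 note: BJ fibroblasts immortalized with TERT plus LT and ST oncogenes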
BJ [12] = assay: cytotoxicity toward Ras-transformed BJeLR fibroblasts, dose response, cell-based, alamar blue fluorescence, cherrypicked samples (AID 2631); format: functional; details: Homo sapiens;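 note: confirmatory dose-response assay in RAS-dependent BJ fibroblasts engineered with TERT, LT and ST, with cytotoxicity read by fluorescence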
[13] = molecular target: FAD-linked sulfhydryl oxidase ALR (Homo sapiens, UniProt P55789); assay: inhibitors of human ALR sulfhydryl oxidase, dose response, biochemical, H2O2 detection, luminescence, cherry-pick (AID 493248)
Large T antigen = Large T antigen (Simian virus 40, UniProt P03070); format: functional, Betapolyomavirus macacae;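 note: Confirmatory-stage PubChem screen for compounds that inhibit SV40 T antigen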
[14] = molecular target: T2, Calpain-2 catalytic subunit (Sus scrofa, UniProt P43367); assay: pig calpain II inhibitor potency, dose response, biochemical, fluorogenic peptide substrate (AID 1420); format: functional
T2 sequence (P43367 whole entry): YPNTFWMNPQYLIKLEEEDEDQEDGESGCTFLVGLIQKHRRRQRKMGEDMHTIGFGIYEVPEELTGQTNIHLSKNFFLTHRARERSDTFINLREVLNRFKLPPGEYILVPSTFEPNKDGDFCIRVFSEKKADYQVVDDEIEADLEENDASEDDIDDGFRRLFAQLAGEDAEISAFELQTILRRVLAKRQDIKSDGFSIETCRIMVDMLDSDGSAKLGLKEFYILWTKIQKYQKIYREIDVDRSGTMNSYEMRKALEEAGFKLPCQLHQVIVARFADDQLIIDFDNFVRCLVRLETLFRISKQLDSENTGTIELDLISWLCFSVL

INS1 = assay: beta cell apoptosis inhibitors, cytokine rescue, dose response, luminescence, retest (AID 449756); format: functional, cell-based; details: Rattus norvegicus;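 note: cell death triggered by IL-1 beta plus TNF-alpha plus IFN-gamma mixture; protective hits raise ATP signal compared with cytokine alone wells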

Chain of Melanocortin receptor 4 (P32245 whole entry): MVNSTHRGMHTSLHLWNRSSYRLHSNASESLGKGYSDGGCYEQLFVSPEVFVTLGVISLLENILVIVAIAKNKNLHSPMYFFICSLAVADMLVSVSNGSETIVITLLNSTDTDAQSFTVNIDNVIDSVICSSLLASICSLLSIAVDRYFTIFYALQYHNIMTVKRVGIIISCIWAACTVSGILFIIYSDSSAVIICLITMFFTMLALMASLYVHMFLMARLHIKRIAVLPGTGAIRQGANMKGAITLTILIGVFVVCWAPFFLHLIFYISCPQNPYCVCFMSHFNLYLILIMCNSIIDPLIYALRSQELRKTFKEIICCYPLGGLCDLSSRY
Chain of Large T antigen (P03070 whole entry): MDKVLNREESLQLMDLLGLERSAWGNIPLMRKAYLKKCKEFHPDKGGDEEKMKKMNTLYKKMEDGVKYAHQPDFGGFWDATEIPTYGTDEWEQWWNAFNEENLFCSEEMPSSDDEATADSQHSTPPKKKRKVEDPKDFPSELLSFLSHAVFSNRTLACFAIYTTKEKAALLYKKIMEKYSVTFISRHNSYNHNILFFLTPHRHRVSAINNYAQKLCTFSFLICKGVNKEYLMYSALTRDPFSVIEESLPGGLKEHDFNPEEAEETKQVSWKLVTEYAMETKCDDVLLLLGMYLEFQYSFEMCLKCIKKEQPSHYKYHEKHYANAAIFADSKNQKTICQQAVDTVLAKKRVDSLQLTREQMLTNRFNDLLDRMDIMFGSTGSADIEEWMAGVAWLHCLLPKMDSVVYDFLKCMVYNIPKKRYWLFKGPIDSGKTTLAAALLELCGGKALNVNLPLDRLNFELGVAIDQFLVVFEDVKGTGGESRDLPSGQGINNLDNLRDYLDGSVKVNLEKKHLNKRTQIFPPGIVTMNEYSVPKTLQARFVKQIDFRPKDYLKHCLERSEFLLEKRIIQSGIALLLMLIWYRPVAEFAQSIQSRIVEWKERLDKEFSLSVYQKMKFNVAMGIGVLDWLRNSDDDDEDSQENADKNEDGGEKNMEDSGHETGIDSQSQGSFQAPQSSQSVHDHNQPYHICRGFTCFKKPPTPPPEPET
Chain of FAD-linked sulfhydryl oxidase ALR (P55789 whole entry): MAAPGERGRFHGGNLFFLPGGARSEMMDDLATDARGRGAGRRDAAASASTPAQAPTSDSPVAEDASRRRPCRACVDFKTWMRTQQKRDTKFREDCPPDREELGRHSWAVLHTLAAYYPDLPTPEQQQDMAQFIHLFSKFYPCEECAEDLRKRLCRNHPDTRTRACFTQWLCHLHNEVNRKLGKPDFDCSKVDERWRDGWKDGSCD
Chain of Paired box protein Pax-8 (Q06710 whole entry): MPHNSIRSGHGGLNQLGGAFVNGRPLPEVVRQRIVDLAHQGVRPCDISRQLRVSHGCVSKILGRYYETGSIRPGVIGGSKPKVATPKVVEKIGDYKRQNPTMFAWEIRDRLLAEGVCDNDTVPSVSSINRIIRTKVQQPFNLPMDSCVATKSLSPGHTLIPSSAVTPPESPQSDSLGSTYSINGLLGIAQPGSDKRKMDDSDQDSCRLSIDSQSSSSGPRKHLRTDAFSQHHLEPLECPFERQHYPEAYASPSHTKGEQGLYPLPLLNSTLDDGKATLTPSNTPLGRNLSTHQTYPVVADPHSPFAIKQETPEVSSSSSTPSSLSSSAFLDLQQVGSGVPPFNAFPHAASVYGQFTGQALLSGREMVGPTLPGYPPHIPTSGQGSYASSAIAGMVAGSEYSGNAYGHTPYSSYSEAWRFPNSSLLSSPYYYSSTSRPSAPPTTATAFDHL
Chain of Protein Wnt-3a (P27467 whole entry): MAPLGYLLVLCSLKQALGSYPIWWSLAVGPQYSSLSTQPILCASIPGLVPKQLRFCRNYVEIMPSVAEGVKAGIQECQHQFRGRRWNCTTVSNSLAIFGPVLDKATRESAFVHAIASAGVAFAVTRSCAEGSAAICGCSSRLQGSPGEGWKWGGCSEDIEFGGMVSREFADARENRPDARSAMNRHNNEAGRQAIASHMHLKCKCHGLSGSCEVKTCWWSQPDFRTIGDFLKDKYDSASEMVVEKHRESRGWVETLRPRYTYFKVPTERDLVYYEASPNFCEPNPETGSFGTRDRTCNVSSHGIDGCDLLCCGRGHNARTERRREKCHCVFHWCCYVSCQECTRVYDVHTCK

For `CCC(C)C1NC(=O)C(NC(=O)C(CC(C)C)N(C)C(=O)C2CCCN2C(=O)C(C)O)C(C)OC(=O)C(Cc2ccc(OC)cc2)N(C)C(=O)C2CCCN2C(=O)C(CC(C)C)NC(=O)[C@H](C)C(=O)[C@H](C(C)C)OC(=O)CC1O` (stereo partly specified), the AC50 [1] was < 0.26 µM (active), the AC50 [2] was > 70 µM (inactive) and the AC50 (Paired box protein Pax-8) was < 0.26 µM (active). The AC50 [3] was < 0.26 µM (active).

In the case of `O=C(CC(c1ccccc1)c1ccccc1O)NCc1ccccc1Cl` (stereo unspecified), the IC50 [4] is reported as 2.7 µM (active), the IC50 [5] is reported as > 20 µM (inactive) and the EC50 [6] is reported as > 53 µM (inactive).

In the case of `Clc1ccc(-c2c[n+](-c3ccc(Cl)cc3)c3n2CCCCC3)cc1`, the IC50 (Protein Wnt-3a) is reported as 26.4 µM (inactive).

In the case of `CCc1ccc(CCC(=O)Nc2ncc(Cc3ccccc3Cl)s2)o1`, the EC50 (BJ [7]) is reported as 2.76 µM (active), the EC50 [8] is reported as 3.72 µM (active) and the EC50 (Melanocortin receptor 4) is reported as > 89.2 µM (inactive). The EC50 (BJ [9]) was 14 µM (active), the AC50 [10] was 0.184 µM (active) and the EC50 (BJ [11]) was 2.83 µM (active). The EC50 (BJ [12]) was 1.83 µM (active).

With `CC(C)(C)NC(=O)NC(=O)CN1CCN(c2ccc(O)cc2)CC1` the AC50 [13] was 4.04 µM (active), the AC50 [1] was 1.9 µM (active) and the AC50 [2] was 67.2 µM (active). The IC50 (Large T antigen) was 21.2 µM (active), the IC50 [14] was 19.1 µM (not active) and the AC50 [3] was 5.88 µM (active).

In the case of `c1ccc(CNc2c(-c3cccc(SC4CCCCC4)c3)nc3ccccn23)cc1`, the AC50 (INS1) is reported as 5.06 µM (active), the AC50 [1] is reported as 3.46 µM (active) and the AC50 [2] is reported as > 70 µM (inactive). The AC50 [3] was 6.09 µM (active) and the AC50 [10] was 5.29 µM (active).
